# Experimental data published in ChEMBL document CHEMBL1201862, “PubChem BioAssay data set” (2004).
# The source made the active and inactive calls.
# Key:
# [1] = Luminescence Cell-Based Dose Response to Identify Activators of 5'UTR Stem-Loop Driven Prion Protein mRNA Translation in H4-C Neuroglioblastoma Cells. [Related pubchem assays: 1829 (Project Summary), 1814 (Primary HTS)]; assay type: functional
# [2] = molecular target: T1, Sentrin-specific protease 7 (Homo sapiens, UniProt Q9BQF6); assay type: functional;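 further: Luminescence-based dose-response confirmation of ultra-high-throughput screening hits, measuring inhibition of SENP7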
# T1 sequence (Q9BQF6 whole entry): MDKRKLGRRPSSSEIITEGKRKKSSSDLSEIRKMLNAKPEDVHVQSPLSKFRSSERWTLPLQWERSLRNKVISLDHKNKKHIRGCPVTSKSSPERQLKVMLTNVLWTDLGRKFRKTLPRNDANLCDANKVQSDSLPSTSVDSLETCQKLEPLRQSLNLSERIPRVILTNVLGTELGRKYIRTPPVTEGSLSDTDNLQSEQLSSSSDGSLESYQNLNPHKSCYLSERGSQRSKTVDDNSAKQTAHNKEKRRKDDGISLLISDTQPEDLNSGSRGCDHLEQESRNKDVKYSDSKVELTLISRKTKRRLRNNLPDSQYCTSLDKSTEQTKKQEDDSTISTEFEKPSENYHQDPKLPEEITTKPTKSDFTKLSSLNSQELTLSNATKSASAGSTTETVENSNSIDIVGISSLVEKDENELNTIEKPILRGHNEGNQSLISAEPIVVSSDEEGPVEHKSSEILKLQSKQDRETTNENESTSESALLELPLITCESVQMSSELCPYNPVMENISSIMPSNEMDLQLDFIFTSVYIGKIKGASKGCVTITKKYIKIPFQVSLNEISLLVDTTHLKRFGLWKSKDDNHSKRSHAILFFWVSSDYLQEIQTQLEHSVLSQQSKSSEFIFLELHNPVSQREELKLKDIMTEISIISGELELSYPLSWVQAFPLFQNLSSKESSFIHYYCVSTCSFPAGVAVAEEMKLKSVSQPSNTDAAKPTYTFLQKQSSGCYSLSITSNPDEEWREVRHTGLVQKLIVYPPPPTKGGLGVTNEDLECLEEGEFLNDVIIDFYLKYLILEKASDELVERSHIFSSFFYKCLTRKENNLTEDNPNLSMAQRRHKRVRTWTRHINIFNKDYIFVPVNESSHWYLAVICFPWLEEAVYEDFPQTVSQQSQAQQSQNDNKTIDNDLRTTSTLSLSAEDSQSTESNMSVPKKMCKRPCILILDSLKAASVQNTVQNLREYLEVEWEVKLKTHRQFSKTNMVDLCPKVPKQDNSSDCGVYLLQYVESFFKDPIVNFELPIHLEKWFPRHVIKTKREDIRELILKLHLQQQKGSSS
# [3] = molecular target: T2, Sentrin-specific protease 6 (Homo sapiens, UniProt Q9GZR1); assay type: functional;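 further: Luminescence-based dose-response confirmatory assay of SENP6 inhibition, following up an ultra-high-throughput screen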
# T2 sequence (Q9GZR1 whole entry): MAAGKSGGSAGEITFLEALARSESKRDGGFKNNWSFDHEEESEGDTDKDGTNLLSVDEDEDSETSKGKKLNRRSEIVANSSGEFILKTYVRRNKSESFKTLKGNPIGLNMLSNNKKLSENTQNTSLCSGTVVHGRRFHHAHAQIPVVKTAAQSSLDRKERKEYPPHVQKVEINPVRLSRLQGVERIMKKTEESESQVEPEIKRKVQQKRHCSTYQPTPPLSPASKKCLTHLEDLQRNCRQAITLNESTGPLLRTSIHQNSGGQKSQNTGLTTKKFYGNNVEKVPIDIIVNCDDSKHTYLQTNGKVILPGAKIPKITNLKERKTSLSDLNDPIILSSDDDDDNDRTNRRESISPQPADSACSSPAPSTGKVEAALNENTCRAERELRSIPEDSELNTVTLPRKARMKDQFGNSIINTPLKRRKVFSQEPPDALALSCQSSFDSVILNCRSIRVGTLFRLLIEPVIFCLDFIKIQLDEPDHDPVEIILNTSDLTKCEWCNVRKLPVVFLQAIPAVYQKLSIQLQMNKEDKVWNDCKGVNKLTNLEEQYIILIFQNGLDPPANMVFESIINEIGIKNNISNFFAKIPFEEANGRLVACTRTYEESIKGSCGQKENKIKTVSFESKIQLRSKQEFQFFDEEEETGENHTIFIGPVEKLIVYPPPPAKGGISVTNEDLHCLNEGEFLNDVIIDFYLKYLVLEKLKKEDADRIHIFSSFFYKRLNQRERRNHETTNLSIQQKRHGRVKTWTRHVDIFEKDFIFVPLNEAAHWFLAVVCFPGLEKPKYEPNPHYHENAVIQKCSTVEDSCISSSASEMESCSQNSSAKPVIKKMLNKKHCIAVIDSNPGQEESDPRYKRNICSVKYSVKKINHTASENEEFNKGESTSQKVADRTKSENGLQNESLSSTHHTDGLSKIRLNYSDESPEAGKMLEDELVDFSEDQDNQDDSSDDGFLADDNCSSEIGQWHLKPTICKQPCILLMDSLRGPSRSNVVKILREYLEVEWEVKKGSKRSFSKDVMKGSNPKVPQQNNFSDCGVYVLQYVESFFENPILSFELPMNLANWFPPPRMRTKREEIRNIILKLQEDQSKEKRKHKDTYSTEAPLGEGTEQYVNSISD
# H4 = test: Luminescence Cell-Based Dose Response HTS to Identify Activators of 5'UTR Stem-Loop Driven Prion Protein mRNA Translation in H4 Neuroglioblastoma Cells. [Related pubchem assays: 1829 (Project Summary), 1814 (Primary HTS)]; assay type: functional; details: Homo sapiens
# [4] = molecular target: T3, Sentrin-specific protease 8 (Homo sapiens, UniProt Q96LD8); assay type: functional;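 further: luminescence read-out of SENP8 inhibition, dose-response confirmation following an ultra-high-throughput screen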
# T3 sequence (Q96LD8 whole entry): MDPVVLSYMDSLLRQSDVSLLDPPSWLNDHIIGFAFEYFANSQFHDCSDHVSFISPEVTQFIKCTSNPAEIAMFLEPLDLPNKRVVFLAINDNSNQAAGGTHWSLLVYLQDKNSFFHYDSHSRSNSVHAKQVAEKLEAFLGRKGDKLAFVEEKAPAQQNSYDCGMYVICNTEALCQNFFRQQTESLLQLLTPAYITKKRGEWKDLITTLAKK
# Caspase-3 = molecular target: T4, Caspase-3 (Homo sapiens, UniProt P42574); assay type: functional;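 further: Dose-response selectivity test against caspase-3 for candidate inhibitors of sentrin-specific proteases (SENPs)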
# T4 sequence (P42574 whole entry): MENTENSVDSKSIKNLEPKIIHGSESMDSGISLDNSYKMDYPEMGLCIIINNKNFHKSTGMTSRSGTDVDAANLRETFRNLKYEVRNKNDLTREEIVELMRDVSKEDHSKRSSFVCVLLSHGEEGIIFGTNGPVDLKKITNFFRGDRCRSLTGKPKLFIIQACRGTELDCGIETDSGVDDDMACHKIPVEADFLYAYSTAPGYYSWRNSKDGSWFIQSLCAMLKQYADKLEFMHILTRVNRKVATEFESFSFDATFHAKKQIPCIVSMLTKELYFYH
# [5] = Luminescence Cell-Based Dose Confirmation to Identify Activators of 5'UTR Stem-Loop Driven Alpha-Synuclein mRNA Translation in H4 Neuroglioblastoma Cells. [Related pubchem assays: 1829 (Project Summary), 1814 (Primary HTS)]; assay type: functional
# [6] = Luminescence Cell-Based Dose Response to Identify Activators of Luciferase Translation or Activity in H4-C Neuroglioblastoma Cells. [Related pubchem assays: 1829 (Project Summary), 1814 (Primary HTS)]; assay type: functional
# [7] = viability loss in human Jurkat cells – cell-based, luminescence, cytotoxicity control for P. falciparum gametocyte viability project, dose response (AID 1117277); assay type: functional;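 further: potency reflects loss of cellular ATP meaning fewer viable cells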
# [8] = viability inhibitors of stage V gametocytes – luminescence, dose response (AID 1117278); assay type: functional, cell-based;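 further: gametocytes exposed to compound for 24 hours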
# [9] = A Cell Based Secondary Assay To Explore Cytotoxicity of Compounds that Sensitize Mycobacterium Tuberculosis to Beta-Lactam Antibiotics.; assay type: functional
# [10] = molecular target: T5, Calpain-2 catalytic subunit (Sus scrofa, UniProt P43367); test: m-calpain protease blockers, concentration series – biochemical, fluorogenic peptide substrate, dose response (AID 1420); assay type: functional
# T5 sequence (P43367 whole entry): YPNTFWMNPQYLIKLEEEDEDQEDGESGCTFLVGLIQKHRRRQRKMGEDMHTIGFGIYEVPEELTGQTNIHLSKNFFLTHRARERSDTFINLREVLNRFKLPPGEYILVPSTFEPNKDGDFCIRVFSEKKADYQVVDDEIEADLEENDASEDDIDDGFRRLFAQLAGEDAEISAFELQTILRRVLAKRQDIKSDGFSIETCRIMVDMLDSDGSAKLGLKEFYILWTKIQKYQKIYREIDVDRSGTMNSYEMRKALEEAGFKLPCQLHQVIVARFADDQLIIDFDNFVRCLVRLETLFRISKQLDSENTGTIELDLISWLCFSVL
# Prothrombin = Prothrombin (Homo sapiens, UniProt P00734); test: Thrombin 1536 HTS Dose Response Confirmation. [Related pubchem assays: 1046 (Thrombin 1536 HTS; hits were confirmed in this assay)]; assay type: functional
# cells [11] = test: cells
# [12] = viability of uninfected HEp-2 cells – cell-based, HTS, cytotoxicity control for RSV inhibitor project, dose response (AID 2410); assay type: functional; details: human respiratory syncytial virus
# [13] = Luminescence Cell-Based Dose Response HTS to Identify Activators of Luciferase Translation or Activity in H4 […] Cells. [Related pubchem assays: 1829 (Project Summary), 1814 (Primary HTS)]; assay type: functional
# [14] = Luminescence Cell-Based Dose Confirmation HTS to Identify Activators of 5'UTR Stem-Loop Driven Alpha-Synuclein mRNA Translation in H4 Neuroglioblastoma Cells. [Related pubchem assays: 1829 (Project Summary), 1814 (Primary HTS)]; assay type: functional
# [15] = Dd2 parasite growth inhibition in erythrocytes – SYBR Green, dry powder samples, set 9, dose response (AID 1159568); assay type: functional, cell-based
# Nonstructural protein 1 = Nonstructural protein 1 (Influenza A virus, UniProt Q194T2); assay type: functional, Influenza A virus (A/California/07/2009(H1N1))
# cells [16] = assay type: functional
# Chain of Nonstructural protein 1 (Q194T2 whole entry): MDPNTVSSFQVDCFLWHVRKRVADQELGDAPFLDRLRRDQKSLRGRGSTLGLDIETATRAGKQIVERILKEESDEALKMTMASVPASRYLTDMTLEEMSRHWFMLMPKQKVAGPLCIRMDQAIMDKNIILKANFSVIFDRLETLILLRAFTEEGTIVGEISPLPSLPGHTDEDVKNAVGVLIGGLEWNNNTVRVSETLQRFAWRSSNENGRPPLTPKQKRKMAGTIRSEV
compound,measurement,setting,value
Cc1cccc(-c2cc3nc4c(c(N5CCOCC5)n3n2)CCCC4)c1,EC50,[1],0.734 µM (active)
same,IC50,[2],12.9 µM (active)
same,IC50,[3],18.5 µM (active)
same,EC50,H4,< 0.1 µM (active)
same,IC50,[4],19.4 µM (active)
same,IC50,Caspase-3,12.4 µM (active)
same,EC50,[5],0.228 µM (active)
same,EC50,[6],0.514 µM (active)
O=C(COC(=O)c1cccnc1)Nc1ccc(F)cc1,IC50,[7],> 83.3 µM (inactive)
same,IC50,[8],> 109 µM (inactive)
CCCCN(C)Cc1cc(=O)oc2cc3c(cc12)CCCC3,CC50,[9],> 40 µM (active)
COc1cccc(NC(=O)c2ccc(NCCCN3CC(C)CC(C)C3)c([N+](=O)[O-])c2)c1 (stereo not given),IC50,[10],3.92 µM (not active)
Cc1nc(SCC(=O)NCc2ccco2)c2c3c(sc2n1)CCCC3,CC50,[9],19.8 µM (active)
CCC(=O)n1nc(-c2ccccc2)nc1SCC(=O)Nc1ccc(C)cc1,IC50,Prothrombin,1.22 µM (active)
CC1CCCCC12NC(=O)N(CC(=O)NCCc1ccccn1)C2=O (stereo not given),IC50,[7],> 83.3 µM (inactive)
same,IC50,[8],> 109 µM (inactive)
Cc1sc2c(c1C)c(=O)n(-c1ccc(F)cc1)c(=O)n2CC(=O)NCc1ccco1,IC50,[10],25.1 µM (not active)
COc1ccc(-c2cc(C(=O)NCc3cn(C)nc3C)c3ccccc3n2)cc1OC,IC50,[10],> 50 µM (not active)
COc1ccccc1NC(=O)CCn1c(=O)c2cccn2c2ccccc21,IC50,cells [11],43.8 µM (active)
same,CC50,[12],> 50 µM (active)
Cc1ccc2cc(CN(Cc3ccco3)C(=O)c3ccco3)c3nnnn3c2c1,IC50,cells [11],44.3 µM (active)
same,CC50,[12],> 50 µM (active)
COc1ccccc1-c1ccc(NC2CCCCC2)nn1,EC50,[1],1.68 µM (active)
same,EC50,[13],52.7 µM (active)
same,EC50,H4,< 0.1 µM (active)
same,EC50,[14],0.6 µM (active)
same,EC50,[5],0.442 µM (active)
same,EC50,[6],> 12 µM (not active)
Cc1ccnc(SCc2nc3ccccc3s2)n1,EC50,[1],3.21 µM (active)
same,EC50,H4,6.54 µM (active)
same,EC50,[14],< 0.1 µM (active)
same,EC50,[5],> 12 µM (inconclusive)
same,EC50,[6],> 12 µM (not active)
C[C@@H]1CCCCO[C@@H](CN(C)S(=O)(=O)c2ccccc2)[C@H](C)CN([C@H](C)CO)C(=O)c2cc(NC(=O)Nc3ccc4c(c3)OCO4)ccc2O1,AC50,[15],1.17 µM (active)
O=C(Nc1cc(F)ccc1F)N1CCCCN2[C@H](CO)[C@H](c3ccc(C4=CCCCC4)cc3)[C@@H]2C1,AC50,[15],12.2 µM (active)
Cc1ccc(NC(=O)c2cc(N3C(=O)C4CCCCC4C3=O)ccc2N2CCOCC2)cc1 (stereo not given),IC50,[10],14.9 µM (not active)
Cc1ccc(Cn2c(SCC(=O)N3CC(=O)Nc4ccccc43)nc3ccccc3c2=O)cc1,IC50,cells [11],42 µM (active)
same,CC50,[12],40.2 µM (active)
Cc1ccc(C)c(N=Nc2nc3ccccc3n2C)c1,EC50,[1],0.275 µM (active)
same,EC50,[13],0.139 µM (inconclusive)
same,EC50,H4,< 0.1 µM (active)
same,IC50,Nonstructural protein 1,14.3 µM (active)
same,EC50,[5],0.393 µM (active)
same,EC50,[6],0.281 µM (active)
O=C(Nc1nc(-c2cccs2)cs1)c1ccc(Cl)cc1,IC50,Prothrombin,4.5 µM (active)
O=C(Nc1ncc(Cc2ccccc2)s1)C1=NCCN1,IC50,[7],> 83.3 µM (inactive)
same,IC50,cells [16],14 µM (active)
same,IC50,[8],> 109 µM (inactive)
CC1(C)CC(=O)C(Sc2nnc(-c3ccc(O)cc3)n2CC2CCCO2)C(=O)C1 (stereo not given),IC50,[7],> 83.3 µM (inactive)
same,IC50,[8],> 109 µM (inactive)
